# Target: T1, human CRHR2-alpha (Homo sapiens, UniProt Q13324)
# T1 sequence (Q13324 1-411): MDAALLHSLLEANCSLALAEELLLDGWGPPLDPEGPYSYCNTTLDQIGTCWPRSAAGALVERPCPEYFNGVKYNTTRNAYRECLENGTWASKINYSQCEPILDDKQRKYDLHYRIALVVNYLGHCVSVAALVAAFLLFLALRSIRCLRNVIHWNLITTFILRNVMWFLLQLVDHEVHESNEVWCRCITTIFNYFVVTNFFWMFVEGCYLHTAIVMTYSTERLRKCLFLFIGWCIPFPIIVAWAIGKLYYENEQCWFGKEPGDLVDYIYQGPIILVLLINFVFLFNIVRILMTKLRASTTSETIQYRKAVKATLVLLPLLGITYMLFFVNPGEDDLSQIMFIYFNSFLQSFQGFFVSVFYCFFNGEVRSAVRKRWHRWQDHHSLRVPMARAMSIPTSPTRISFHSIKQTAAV
# Experiment: cAMP functional assay for human CRHR2 (LANCE Ultra cAMP, TR-FRET)
# Type: cell-based
# Conditions: CHO-K1 cells expressing human CRHR2-alpha, agonist human urocortin2 at EC80, cAMP; read-out: IC50 against CRHR2
# Summary of the method: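 Inhibition of agonist-driven cAMP was assessed in recombinant CHO-K1 cells at 25° C, using 30 min compound pretreatment and 30 min stimulation with EC80 human urocortin2 (CRHR2) or CRF (CRHR1). IC50 came from dose-response fitting.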
row,SMILES,IC50
1,"CNc1cc(C)c(-n2c(=O)n(C[C@H]3CC[C@H](NC(=O)c4cc(Cl)cnc4C)CC3)c3ccccc32)cn1 [Example 435, 5-chloro-2-methyl-N-((1r,4r)-4-((3-(4-methyl-6-(methylamino)pyridin-3-yl)-2-oxo-2,3-dihydro-1H-benzo[d]imidazol-1-yl)methyl)cyclohexyl)nicotinamide]",< 300 nM
2,"O=C(N[C@H]1CC[C@H](Cn2c(=O)n(Cc3ccncc3)c3ccccc32)CC1)c1cc(Cl)cnc1C(F)(F)F [Example 280, 5-chloro-N-((1r,4r)-4-((2-oxo-3-(pyridin-4-ylmethyl)-2,3-dihydro-1H-benzo[d]imidazol-1-yl)methyl)cyclohexyl)-2-(trifluoromethyl)nicotinamide]",< 300 nM
3,"CN(C)c1ccc(-n2c(=O)n(C[C@H]3CC[C@H](NC(=O)c4cc(Cl)cnc4C(F)F)CC3)c3ccccc32)cn1 [Example 381, 5-chloro-2-(difluoromethyl)-N-((1r,4r)-4-((3-(6-(dimethyl-amino)pyridin-3-yl)-2-oxo-2,3-dihydro-1H-benzo[d]imidazol-1-yl)methyl)cyclo-hexyl)nicotinamide]",< 300 nM
4,"O=C(N[C@H]1CC[C@H](Cn2c(=O)n(-c3ccc4cnccc4c3)c3ccccc32)CC1)c1cc(Cl)cnc1C(F)F [Example 397, 5-chloro-2-(difluoromethyl)-N-((1r,4r)-4-((3-(isoquinolin-6-yl)-2-oxo-2,3-dihydro-1H-benzo[d]imidazol-1-yl)methyl)cyclohexyl)nicotinamide]",< 300 nM
5,"Cc1ncc(Cl)cc1C(=O)N[C@H]1CC[C@H](Cn2c(=O)n(-c3ccncc3C(F)(F)F)c3ccccc32)CC1 [Example 320, 5-chloro-2-methyl-N-((1r,4r)-4-((2-oxo-3-(3-(trifluoro-methyl)pyridin-4-yl)-2,3-dihydro-1H-benzo[d]imidazol-1-yl)methyl)cyclohexyl) nicotinamide]",< 300 nM
6,"CCn1nc2ncc(-n3c(=O)n(C[C@H]4CC[C@H](NC(=O)c5cc(Cl)cnc5C)CC4)c4ccccc43)cc2c1C [Example 295, 5-chloro-N-((1r,4r)-4-((3-(2-ethyl-3-methyl-2H-pyrazolo[3,4-b]pyridin-5-yl)-2-oxo-2,3-dihydro-1H-benzo[d]imidazol-1-yl)methyl)cyclohexyl)-2-methylnicotinamide]",< 300 nM
7,"O=C(N[C@H]1CC[C@H](Cn2c(=O)n(-c3ccc(N[C@@H]4CCOC4)nc3)c3ccccc32)CC1)c1cc(Cl)cnc1C(F)F [Example 379, 5-chloro-2-(difluoromethyl)-N-((1R,4r)-4-((2-oxo-3-(6-(((R)-tetrahydrofuran-3-yl)amino)pyridin-3-yl)-2,3-dihydro-1H-benzo[d]imidazol-1-yl)methyl)cyclohexyl) nicotinamide]",< 300 nM
8,"O=C(N[C@H]1CC[C@H](Cn2c(=O)n(Cc3cscn3)c3ccccc32)CC1)c1cc(Cl)cnc1C(F)(F)F [Example 314, 5-chloro-N-((1r,4r)-4-((2-oxo-3-(thiazol-4-ylmethyl)-2,3-dihydro-1H-benzo[d]imidazol-1-yl)methyl)cyclo-hexyl)-2-(trifluoromethyl) nicotinamide]",< 300 nM
9,"COc1ccc(-n2c(=O)n(C[C@H]3CC[C@H](NC(=O)c4cc(Cl)cnc4C(F)F)CC3)c3ccccc32)cn1 [Example 323, 5-chloro-2-(difluoromethyl)-N-((1r,4r)-4-((3-(6-methoxy-pyridin-3-yl)-2-oxo-2,3-di-hydro-1H-benzo[d]imidazol-1-yl)methyl)cyclohexyl)nico-tinamide]",< 300 nM
10,"CNc1cnc(-n2c(=O)n(C[C@H]3CC[C@H](NC(=O)c4cc(Cl)cnc4C)CC3)c3ccccc32)cn1 [Example 115, 5-chloro-2-methyl-N-((1r,4r)-4-((3-(5-(methylamino)pyrazin-2-yl)-2-oxo-2,3-dihydro-1H-benzo [d]imidazol-1-yl)methyl)cyclo-hexyl)nicotinamide]",< 300 nM
11,"Cc1ncc(Cl)cc1C(=O)N[C@H]1CC[C@H](Cn2c(=O)n(-c3cnc4c(cnn4CCO)c3)c3ccccc32)CC1 [Example 253, 5-chloro-N-((1r,4r)-4-((3-(1-(2-hydroxyethyl)-1H-pyrazolo[3,4-b]pyridin-5-yl)-2-oxo-2,3-dihydro-1H-benzo[d]imidazol-1-yl)methyl)cyclohexyl)-2-methylnicotinamide]",< 300 nM
12,"COCOCCn1nc(C)c2cc(-n3c(=O)n(C[C@H]4CC[C@H](NC(=O)c5cc(Cl)cnc5C)CC4)c4ccccc43)ccc21 [Example 229, 5-chloro-N-((1r,4r)-4-((3-(1-(2-(methoxymethoxy)ethyl)-3-methyl-1H-indazol-5-yl)-2-oxo-2,3-dihydro-1H-benzo[d]imidazol-1-yl)methyl)cyclo-hexyl)-2-methylnicotinamide]",< 300 nM
13,"Cc1ncc(Cl)cc1C(=O)N[C@H]1CC[C@H](Cn2c(=O)n(-c3ccc(SCCO)nc3)c3ccccc32)CC1 [Example 412, 5-chloro-N-((1r,4r)-4-((3-(6-((2-hydroxyethyl)thio)pyridin-3-yl)-2-oxo-2,3-dihydro-1H-benzo[d]imidazol-1-yl)methyl)cyclohexyl)-2-methylnicotinamide]",< 300 nM
14,"Cc1ccc(-n2c(=O)n(C[C@H]3CC[C@H](NC(=O)c4cc(Cl)cnc4C(F)F)CC3)c3ccccc32)cn1 [Example 324, 5-chloro-2-(difluoromethyl)-N-((1r,4r)-4-((3-(6-methyl-pyridin-3-yl)-2-oxo-2,3-dihydro-1H-benzo[d]imidazol-1-yl)methyl)cyclohexyl)nico-tinamide]",< 300 nM
15,"Cc1ncc(Cl)cc1C(=O)N[C@H]1CC[C@H](Cn2c(=O)n(-c3cnc4c(N)ncnc4c3)c3ccccc32)CC1 [Example 319, N-((1r,4r)-4-((3-(4-aminopyrido[3,2-d]pyrimidin-7-yl)-2-oxo-2,3-dihydro-1H-benzo[d]imidazol-1-yl)methyl)cyclohexyl)-5-chloro-2-methylnicotinamide]",< 300 nM

# More lines, now with the values ahead:
row,IC50,SMILES
1,< 300 nM,"Cc1ncc(Cl)cc1C(=O)N[C@H]1CC[C@H](Cn2c(=O)n(-c3ccc(-c4cocn4)cc3)c3ccccc32)CC1 [Example 635, 5-chloro-2-methyl-N-((1r,4r)-4-((3-(4-(oxazol-4-yl)phenyl)-2-oxo-2,3-dihydro-1H-benzo [d]imidazol-1-yl)methyl)cyclo-hexyl)nicotinamide]"
2,< 300 nM,"CNc1ccc(-n2c(=O)n(C[C@H]3CC[C@H](NC(=O)c4cc(Cl)cnc4C(F)(F)F)CC3)c3ccccc32)nc1 [Example 692, 5-chloro-N-((1r,4r)-4-((3-(5-(methylamino)pyridin-2-yl)-2-oxo-2,3-dihydro-1H-benzo[d]imidazol-1-yl)methyl)cyclohexyl)-2-(trifluoromethyl)nicotinamide]"
3,< 300 nM,"Cc1ncc(Cl)cc1C(=O)N[C@H]1CC[C@H](Cn2c(=O)n(-c3ccc(-c4ccnn4C)cc3)c3ccccc32)CC1 [Example 446, 5-chloro-2-methyl-N-((1r,4r)-4-((3-(4-(1-methyl-1H-pyrazol-5-yl)phenyl)-2-oxo-2,3-dihydro-1H-benzo[d]imidazol-1-yl)methyl)cyclo-hexyl)nicotinamide]"
4,< 300 nM,"COc1ccc(C#N)c(-n2c(=O)n(C[C@H]3CC[C@H](NC(=O)c4cc(Cl)cnc4C(F)F)CC3)c3cccnc32)c1 [Example 507, 5-chloro-N-((1r,4r)-4-((3-(2-cyano-5-methoxyphenyl)-2-oxo-2,3-dihydro-1H-imidazo [4,5-b]pyridin-1-yl)methyl)cyclohexyl)-2-(difluoromethyl) nicotinamide]"
5,< 300 nM,"O=C(N[C@H]1CC[C@H](Cn2c(=O)n(-c3ccc(N4CCNC4=O)nc3)c3ccc(F)cc32)CC1)c1cc(Cl)cnc1C(F)F [Example 736, 5-chloro-2-(difluoromethyl)-N-((1r,4r)-4-((6-fluoro-2-oxo-3-(6-(2-oxoimidazolidin-1-yl)pyridin-3-yl)-2,3-dihydro-1H-benzo[d]imidazol-1-yl)methyl)cyclohexyl) nicotinamide]"
6,< 300 nM,"C[C@@H](O)COc1ccc(-n2c(=O)n(C[C@H]3CC[C@H](NC(=O)c4cc(Cl)cnc4C(F)(F)F)CC3)c3ccccc32)cn1 [Example 466, 5-chloro-N-((1R,4r)-4-((3-(6-((R)-2-hydroxypropoxy)pyridin-3-yl)-2-oxo-2,3-dihydro-1H-benzo[d]imidazol-1-yl)methyl)cyclohexyl)-2-(trifluoromethyl)nicotinamide]"
7,< 300 nM,"CN(C)c1cc(-n2c(=O)n(C[C@H]3CC[C@H](NC(=O)c4cc(Cl)cnc4C(F)F)CC3)c3ccccc32)ccn1 [Example 650, 5-chloro-2-(difluoromethyl)-N-((1r,4r)-4-((3-(2-(dimethyl-amino)pyridin-4-yl)-2-oxo-2,3-dihydro-1H-benzo[d]imidazol-1-yl)methyl)cyclo-hexyl)nicotinamide]"
8,< 300 nM,"O=C(N[C@H]1CC[C@H](Cn2c(=O)n(-c3ccc(N4CC5(COC5)CC4=O)nc3)c3ccccc32)CC1)c1cc(Cl)cnc1C(F)F [Example 584, 5-chloro-2-(difluoromethyl)-N-((1r,4r)-4-((2-oxo-3-(6-(7-oxo-2-oxa-6-azaspiro[3,4]octan-6-yl)pyridin-3-yl)-2,3-dihydro-1H-benzo[d]imidazol-1-yl)methyl)cyclohexyl) nicotinamide]"

# Reference: US11802120B2, “Fused cyclic urea derivatives as CRHR2 antagonist” (RaQualia Pharma Inc., priority 2018, dated 2023)
